Laboratory results published in US9850283B2, “Macrocyclic inhibitors of the PD-1/PD-L1 and CD80(B7-1)/PD-L1 protein/protein interactions” (BRISTOL-MYERS SQUIBB COMPANY, priority 2013, dated 2017).
Read-outs that look alike come from different tables or passages of the source. Positions of bridges follow the written chain, without caps; N, C: chain ends. Non-standard residues stand in square brackets, D forms with d. Residues, ends and D or L forms follow the SMILES beside them. ξ: configuration not given here. Phe(F5) = N[C@@H](Cc1c(F)c(F)c(F)c(F)c1F)C(=O)O; Pro(4R-Bn) = O=C(O)[C@@H]1C[C@@H](Cc2ccccc2)CN1; Phe(4-CH2NH2) = NCc1ccc(C[C@H](N)C(=O)O)cc1; Tyr(3-Br) = N[C@@H](Cc1ccc(O)c(Br)c1)C(=O)O; Bip = N[C@@H](Cc1ccc(-c2ccccc2)cc1)C(=O)O; Phe(3-Cl) = N[C@@H](Cc1cccc(Cl)c1)C(=O)O; Pro(5S-Me) = C[C@H]1CC[C@@H](C(=O)O)N1; Bta = N[C@@H](Cc1csc2ccccc12)C(=O)O; Hyp = O=C(O)[C@@H]1C[C@@H](O)CN1; NMeF = CN[C@@H](Cc1ccccc1)C(=O)O; Cha = N[C@@H](CC1CCCCC1)C(=O)O; NMeNle = CCCC[C@H](NC)C(=O)O; ξR = N=C(N)NCCCC(N)C(=O)O; NMeA = CN[C@@H](C)C(=O)O; Dab = NCC[C@H](N)C(=O)O; Dap = NC[C@H](N)C(=O)O; ξP = O=C(O)C1CCCN1; ξC = NC(CS)C(=O)O; ξS = NC(CO)C(=O)O; Sar = CNCC(=O)O

How the values were obtained:
[1] = biological target: T1, Human PD-L1/PD-1 (Homo sapiens, UniProt Q9NZQ7); assay: HTRF PD-1-Ig/PD-L1-His binding assay (human PD-L1)
T1 construct: made in house; host or cells: HEK293T
T1 sequence (Q9NZQ7 with tags, fused parts or gaps): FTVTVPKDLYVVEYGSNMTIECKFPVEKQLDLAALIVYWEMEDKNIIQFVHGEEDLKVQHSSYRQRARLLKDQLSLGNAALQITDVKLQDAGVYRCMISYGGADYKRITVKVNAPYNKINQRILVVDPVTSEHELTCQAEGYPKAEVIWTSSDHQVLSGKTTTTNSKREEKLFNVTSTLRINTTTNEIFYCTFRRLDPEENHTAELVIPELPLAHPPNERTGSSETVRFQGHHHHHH
How it was run: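 Interaction of Fc-tagged soluble PD-1 with His-tagged soluble PD-L1 is monitored by time-resolved FRET. Donor is europium cryptate anti-Ig (1 nM final) and acceptor is APC anti-His (20 nM final). Assay buffer is dPBS with 0.1% BSA and 0.05% Tween-20.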

[2] = biological target: T2, LK35.2-hPD-L1 cells / PE-labeled PD-1-Ig (Homo sapiens, UniProt Q9NZQ7); assay: LK35.2-hPD-L1 cell binding high-content screening assay; assay type: cell-based
T2 construct: expressed in transfected cells; host or cells: LK35.2 mouse B cell line
T2 sequence (Q9NZQ7 19-290): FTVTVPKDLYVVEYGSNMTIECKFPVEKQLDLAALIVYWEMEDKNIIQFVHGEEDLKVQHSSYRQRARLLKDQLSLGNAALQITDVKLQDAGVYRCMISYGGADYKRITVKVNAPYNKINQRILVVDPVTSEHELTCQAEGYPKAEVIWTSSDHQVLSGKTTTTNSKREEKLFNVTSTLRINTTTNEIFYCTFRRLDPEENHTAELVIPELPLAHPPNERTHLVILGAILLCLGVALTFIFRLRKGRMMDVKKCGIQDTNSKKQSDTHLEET
How it was run: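 Binding of PE-conjugated human PD-1-Ig (1 nM final) to human PD-L1 stably expressed on a mouse B-cell line (LK35.2) was measured by high-content imaging after washes. Compound and labeled PD-1-Ig were co-incubated 1 h at 37 °C with cells in RPMI/10% FCS.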

[3] = cluster symbol, read-out: HTRF IC50 cluster
[4] = cluster symbol, cell line of CBA not given (LK35.2-hPD-L1 or 293T-hPD-L1), read-out: CBA IC50 cluster
[5] = cell binding assay, cell line not given, cluster symbol, read-out: CBA IC50 cluster

SMILES | IC50 [1, 3] [nM] | IC50 [2, 4] [nM] | IC50 ([1]; value given instead of cluster, read-out: HTRF IC50 value) [nM] | IC50 ([2]; cell binding assay, cell line not given, value given instead of cluster, read-out: CBA IC50 value) [nM] | IC50 [2, 5] [nM]
CCCC[C@H]1C(=O)N(C)[C@@H](CCCC)C(=O)N[C@@H](CCCNC(=N)N)C(=O)N[C@H](C(=O)NCC(N)=O)CSCC(=O)N[C@@H](Cc2ccc(O)cc2)C(=O)N(C)[C@@H](C)C(=O)N[C@@H](CC(N)=O)C(=O)N2CCC[C@H]2C(=O)N[C@@H](CN)C(=O)N[C@@H](CC(C)C)C(=O)N2C[C@H](O)C[C@H]2C(=O)N[C@@H](Cc2c[nH]c3ccccc23)C(=O)N[C@@H](CO)C(=O)N[C@@H](Cc2c[nH]c3ccccc23)C(=O)N1C [Example 1114] ({CH2CO}-Y[NMeA]NP[Dap]L[Hyp]WSW[NMeNle][NMeNle]RCG-NH2; thioether N-14) | 6.76 to 30.3 | 0.158 to 4.71 | – | – | –
CCCC[C@H]1C(=O)N2CCC[C@@H]2C(=O)N[C@@H](CCN)C(=O)N[C@H](C(=O)NCC(N)=O)CSCC(=O)N[C@@H](Cc2ccc(O)c(Br)c2)C(=O)N(C)[C@@H](C)C(=O)N[C@@H](CC(N)=O)C(=O)N2CCC[C@H]2C(=O)N[C@@H](Cc2cnc[nH]2)C(=O)N[C@@H](CC(C)C)C(=O)N(C)CC(=O)N[C@@H](Cc2c[nH]c3ccccc23)C(=O)N[C@@H](CCN)C(=O)N[C@@H](Cc2c[nH]c3ccccc23)C(=O)N1C [Example 6045] ({CH2CO}-[Tyr(3-Br)][NMeA]NPHL[Sar]W[Dab]W[NMeNle][dP][Dab]CG-NH2; thioether N-14) | – | – | 90.1 | 625 | –
CCCC[C@H]1C(=O)N(C)[C@@H](COCC)C(=O)N[C@@H](CCCNC(=N)N)C(=O)NC(C(=O)NCC(N)=O)CSCC(=O)N[C@@H](Cc2ccc(O)cc2)C(=O)N(C)[C@@H](C)C(=O)N[C@@H](CC(N)=O)C(=O)N2CCC[C@H]2C(=O)N[C@@H](Cc2cnc[nH]2)C(=O)N[C@@H](CC(C)C)C(=O)N2C[C@H](O)C[C@H]2C(=O)N[C@@H](Cc2c[nH]c3ccccc23)C(=O)N[C@@H](CO)C(=O)N[C@@H](Cc2c[nH]c3ccccc23)C(=O)N1C (stereo partly shown) [Example 9043] | 0.385 to 6.74 | – | – | – | 0.158 to 4.71
CCCC[C@H]1C(=O)N(C)CC(=O)N[C@@H](CC(=O)O)C(=O)N[C@@H](C(C)C)C(=O)N(C)[C@@H](Cc2ccccc2)C(=O)N[C@@H](Cc2ccc(O)cc2)C(=O)N(C)CC(=O)N[C@@H](Cc2c[nH]c3ccccc23)C(=O)N[C@@H](Cc2ccc(O)cc2)C(=O)N[C@@H](CC(C)C)C(=O)N[C@H](C(=O)NCC(N)=O)CSCC(=O)N[C@@H](Cc2c(F)c(F)c(F)c(F)c2F)C(=O)N(C)[C@@H](Cc2ccccc2)C(=O)N1C [Example 3078] ({CH2CO}-[Phe(F5)][NMeF][NMeNle][Sar]DV[NMeF]Y[Sar]WYLCG-NH2; thioether N-13) | > 30.5 | > 74.3 | – | – | –
CCCC[C@H]1C(=O)N(C)[C@@H](CCCC)C(=O)N[C@@H](C)C(=O)N[C@H](C(=O)NCC(N)=O)CSCC(=O)N[C@@H](Cc2ccc(O)cc2)C(=O)N(C)[C@@H](C)C(=O)N[C@@H](CCC(=O)O)C(=O)N2CCC[C@H]2C(=O)N[C@@H](Cc2cnc[nH]2)C(=O)N[C@@H](CC(C)C)C(=O)N2CCC[C@H]2C(=O)N[C@@H](Cc2c[nH]c3ccccc23)C(=O)N[C@@H](CO)C(=O)N[C@@H](Cc2c[nH]c3ccccc23)C(=O)N1C [Example 1164] ({CH2CO}-Y[NMeA]EPHLPWSW[NMeNle][NMeNle]ACG-NH2; thioether N-14) | 6.76 to 30.3 | 4.78 to 72.9 | – | – | –
CCCC[C@H]1C(=O)N(C)CC(=O)N[C@@H](CC(=O)O)C(=O)N[C@@H](C(C)C)C(=O)N(C)[C@@H](Cc2ccccc2)C(=O)N[C@@H](Cc2ccc(CN)cc2)C(=O)N(C)CC(=O)N[C@@H](Cc2csc3ccccc23)C(=O)N[C@@H](Cc2ccc(O)cc2)C(=O)N[C@@H](CC(C)C)C(=O)N[C@H](C(=O)NCC(N)=O)CSCC(=O)N[C@@H](Cc2cccc(Cl)c2)C(=O)N(C)[C@@H](Cc2ccccc2)C(=O)N1C [Example 3118] ({CH2CO}-[Phe(3-Cl)][NMeF][NMeNle][Sar]DV[NMeF][Phe(4-CH2NH2)][Sar][Bta]YLCG-NH2; thioether N-13) | 6.76 to 30.3 | 4.78 to 72.9 | – | – | –
CCCC[C@H]1C(=O)N(C)CC(=O)N[C@@H](CC(=O)O)C(=O)N[C@@H](C(C)C)C(=O)N(C)[C@@H](Cc2ccccc2)C(=O)N[C@@H](Cc2ccc(O)cc2)C(=O)N(C)CC(=O)N[C@@H](Cc2c[nH]c3ccccc23)C(=O)N[C@@H](Cc2ccc(O)cc2)C(=O)N[C@@H](CC(C)C)C(=O)N[C@H](C(=O)NCC(N)=O)CSCC(=O)N[C@@H](CCSC)C(=O)N(C)[C@@H](Cc2ccccc2)C(=O)N1C [Example 3172] (HELM PEPTIDE1{[O=C(C[*:3])[*:2]].M.[meF].[CCCC[C@@H](C(=O)[*:2])N(C)[*:1]].[Sar].D.V.[meF].Y.[Sar].W.Y.L.C.G.[am]}$PEPTIDE1,PEPTIDE1,1:R3-14:R3$$$V2.0) | > 30.5 | > 74.3 | – | – | –
CCCC[C@H]1C(=O)N(C)CC(=O)N[C@@H](CC(=O)O)C(=O)N[C@@H](C(C)C)C(=O)N[C@@H](Cc2cccc(Cl)c2)C(=O)N[C@@H](Cc2ccc(O)cc2)C(=O)N(C)CC(=O)N[C@@H](Cc2c[nH]c3ccccc23)C(=O)N[C@@H](Cc2ccc(O)cc2)C(=O)N[C@@H](CC(C)C)C(=O)N[C@H](C(=O)NCC(N)=O)CSCC(=O)N[C@@H](Cc2ccccc2)C(=O)N(C)[C@@H](Cc2ccccc2)C(=O)N1C [Example 3131] ({CH2CO}-F[NMeF][NMeNle][Sar]DV[Phe(3-Cl)]Y[Sar]WYLCG-NH2; thioether N-13) | > 30.5 | > 74.3 | – | – | –
CCCC[C@H]1C(=O)N(C)[C@@H](CCCC)C(=O)N[C@@H](CCCNC(=N)N)C(=O)N[C@H](C(=O)NCC(N)=O)CSCC(=O)N[C@@H](Cc2ccccc2)C(=O)N(C)[C@@H](C)C(=O)N[C@@H](CC(N)=O)C(=O)N2CCC[C@H]2C(=O)N[C@@H](Cc2cnc[nH]2)C(=O)N[C@@H](CC(C)C)C(=O)N2CCC[C@H]2C(=O)N[C@@H](Cc2c[nH]c3ccccc23)C(=O)N[C@@H](CO)C(=O)N[C@@H](Cc2csc3ccccc23)C(=O)N1C [Example 1015] ({CH2CO}-F[NMeA]NPHLPWS[Bta][NMeNle][NMeNle]RCG-NH2; thioether N-14) | 6.76 to 30.3 | 4.78 to 72.9 | – | – | –
CCCC[C@H]1C(=O)N(C)[C@@H](CCCC)C(=O)NC(CCCNC(=N)N)C(=O)NC(C(=O)NCC(N)=O)CSCC(=O)N[C@@H](Cc2ccccc2)C(=O)N(C)[C@@H](C)C(=O)N[C@@H](CC(N)=O)C(=O)N2CCCC2C(=O)N[C@@H](Cc2cnc[nH]2)C(=O)N[C@@H](CC(C)C)C(=O)N(C)CC(=O)N[C@@H](Cc2c[nH]c3ccccc23)C(=O)NC(CO)C(=O)N[C@@H](Cc2ccc(-c3ccccc3)cc2)C(=O)N1C (stereo partly shown) [Example 1028] ({CH2CO}-F[NMeA]N[ξP]HL[Sar]W[ξS][Bip][NMeNle][NMeNle][ξR][ξC]G-NH2; thioether N-14) | > 30.5 | > 74.3 | – | – | –
CCCC[C@H]1C(=O)N(C)[C@@H](CCCC)C(=O)N[C@@H](CCC(=O)O)C(=O)N[C@H](C(=O)NCC(N)=O)CSCC(=O)N[C@@H](Cc2ccc(O)cc2)C(=O)N(C)[C@@H](C)C(=O)N[C@@H](CC(=O)O)C(=O)N2CCC[C@H]2C(=O)N[C@@H](Cc2c[nH]cn2)C(=O)N[C@@H](CCCCN)C(=O)N2C[C@H](Cc3ccccc3)C[C@H]2C(=O)N[C@@H](Cc2c[nH]c3ccccc23)C(=O)N[C@@H](CCCCN)C(=O)N[C@@H](Cc2c[nH]c3ccccc23)C(=O)N1C [Example 13010] ({CH2CO}-Y[NMeA]DPHK[Pro(4R-Bn)]WKW[NMeNle][NMeNle]ECG-NH2; thioether N-14) | 0.385 to 6.74 | – | – | – | 0.158 to 4.71
CCCC[C@H]1C(=O)N(C)[C@@H](CCCC)C(=O)N[C@@H](CCCNC(=N)N)C(=O)NC(C(=O)NCC(N)=O)CSCC(=O)N[C@@H](Cc2ccc(O)cc2)C(=O)N(C)[C@@H](C)C(=O)N[C@@H](CC(N)=O)C(=O)N2CCC[C@H]2C(=O)N[C@@H](Cc2cnc[nH]2)C(=O)N[C@@H](CC(C)C)C(=O)N2[C@@H](C)CC[C@H]2C(=O)N[C@@H](Cc2c[nH]c3ccccc23)C(=O)N[C@@H](CO)C(=O)N[C@@H](Cc2csc3ccccc23)C(=O)N1C (stereo partly drawn) [Example 9015] ({CH2CO}-Y[NMeA]NPHL[Pro(5S-Me)]WS[Bta][NMeNle][NMeNle]R[ξC]G-NH2; thioether N-14) | 6.76 to 30.3 | – | – | – | 0.158 to 4.71
CCCC[C@H]1C(=O)N(C)[C@@H](CCCC)C(=O)N[C@@H](CCCNC(=N)N)C(=O)N[C@H](C(=O)NCC(N)=O)CSCC(=O)N[C@@H](Cc2ccc(O)cc2)C(=O)N(C)[C@@H](C)C(=O)N[C@@H](CC(N)=O)C(=O)N[C@@H](Cc2cnc[nH]2)C(=O)N2CCC[C@H]2C(=O)N[C@@H](CC(C)C)C(=O)N2CCC[C@H]2C(=O)N[C@@H](Cc2c[nH]c3ccccc23)C(=O)N[C@@H](CO)C(=O)N[C@@H](Cc2csc3ccccc23)C(=O)N1C [Example 1052] ({CH2CO}-Y[NMeA]NHPLPWS[Bta][NMeNle][NMeNle]RCG-NH2; thioether N-14) | > 30.5 | > 74.3 | – | – | –
CCCC[C@H]1C(=O)N(C)[C@@H](CCCC)C(=O)N[C@@H](CC(C)C)C(=O)N[C@H](C(=O)NCC(N)=O)CSCC(=O)N[C@@H](Cc2ccc(O)cc2)C(=O)N(C)[C@@H](C)C(=O)N[C@@H](CC(N)=O)C(=O)N2CCC[C@H]2C(=O)N[C@@H](CN)C(=O)N[C@@H](CC2CCCCC2)C(=O)N2C[C@H](O)C[C@H]2C(=O)N[C@@H](Cc2c[nH]c3ccccc23)C(=O)N[C@@H](CO)C(=O)N[C@@H](Cc2c[nH]c3ccccc23)C(=O)N1C [Example 5082] ({CH2CO}-Y[NMeA]NP[Dap][Cha][Hyp]WSW[NMeNle][NMeNle]LCG-NH2; thioether N-14) | 0.385 to 6.74 | – | – | – | 0.158 to 4.71
